Data: PubChem BioAssay AID2060883 (Molecular Pharmacology Branch, DTP, NCI, 2025)

Test system: 843782-103-R-J1-PDC complex spheroid viability
Test: Anticancer human tumor 843782-103-R-J1-PDC patient-derived lung adenocarcinoma cell line growth inhibition [RAS]
Conditions: for IC50: curve of first compound; for viability, T/C: stronger effect = lower value
Method in brief: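 Multi-cell-type spheroids: tumor cells plus HUVEC endothelial cells and mesenchymal stem cells. RAS-pathway inhibitors were combined with targeted agents, each dosed in half-log steps down from clinical Cmax, or from 10 microM when Cmax was unknown.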
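Also: viability read after seven days of compound exposure.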

CC(Nc1ccc2c(c1)OCCn1cc(N3C(=O)OCC3C(F)F)nc1-2)C(N)=O (stereo not given) + C#Cc1c(F)ccc2cc(O)cc(-c3ncc4c(N5CC6CCC(C5)N6)nc(OCC56CCCN5CC(F)C6)nc4c3F)c12
IC50 (second compound 0.0316 µM): 457 nM | IC50 (second compound 0.1 µM): 375 nM | IC50 (second compound 0.316 µM): 297 nM | IC50 (second compound 1 µM): 174 nM | IC50 (second compound 3.16 µM): 57.7 nM | IC50 (second compound 10 µM): < 31.6 nM | viability, T/C (second compound 0.0316 µM, first compound 0.0316 µM): 96.3% | viability, T/C (second compound 0.0316 µM, first compound 0.1 µM): 73.7% | viability, T/C (second compound 0.0316 µM, first compound 0.316 µM): 59.3% | viability, T/C (second compound 0.0316 µM, first compound 1 µM): 35.5% | viability, T/C (second compound 0.0316 µM, first compound 3.16 µM): 24.5% | viability, T/C (second compound 0.0316 µM, first compound 10 µM): 16.1% | viability, T/C (second compound 0.1 µM, first compound 0.0316 µM): 96.4% | viability, T/C (second compound 0.1 µM, first compound 0.1 µM): 76.6% | viability, T/C (second compound 0.1 µM, first compound 0.316 µM): 50% | viability, T/C (second compound 0.1 µM, first compound 1 µM): 36.3% | viability, T/C (second compound 0.1 µM, first compound 3.16 µM): 22.8% | viability, T/C (second compound 0.1 µM, first compound 10 µM): 15% | viability, T/C (second compound 0.316 µM, first compound 0.0316 µM): 91.2% | viability, T/C (second compound 0.316 µM, first compound 0.1 µM): 72.9% | viability, T/C (second compound 0.316 µM, first compound 0.316 µM): 46.2% | viability, T/C (second compound 0.316 µM, first compound 1 µM): 32.6% | viability, T/C (second compound 0.316 µM, first compound 3.16 µM): 23.2% | viability, T/C (second compound 0.316 µM, first compound 10 µM): 15% | viability, T/C (second compound 1 µM, first compound 0.0316 µM): 89.9% | viability, T/C (second compound 1 µM, first compound 0.1 µM): 59.5% | viability, T/C (second compound 1 µM, first compound 0.316 µM): 39.6% | viability, T/C (second compound 1 µM, first compound 1 µM): 25.1% | viability, T/C (second compound 1 µM, first compound 3.16 µM): 20% | viability, T/C (second compound 1 µM, first compound 10 µM): 10.9% | viability, T/C (second compound 3.16 µM, first compound 0.0316 µM): 63% | viability, T/C (second compound 3.16 µM, first compound 0.1 µM): 36.7% | viability, T/C (second compound 3.16 µM, first compound 0.316 µM): 26.6% | viability, T/C (second compound 3.16 µM, first compound 1 µM): 18.2% | viability, T/C (second compound 3.16 µM, first compound 3.16 µM): 12.2% | viability, T/C (second compound 3.16 µM, first compound 10 µM): 8.25% | viability, T/C (second compound 10 µM, first compound 0.0316 µM): 41.2% | viability, T/C (second compound 10 µM, first compound 0.1 µM): 22.2% | viability, T/C (second compound 10 µM, first compound 0.316 µM): 21.3% | viability, T/C (second compound 10 µM, first compound 1 µM): 15.4% | viability, T/C (second compound 10 µM, first compound 3.16 µM): 8.8% | viability, T/C (second compound 10 µM, first compound 10 µM): 3.28%

Cc1nc(N2CCC3(CC2)COC(C)C3N)c(CO)nc1Sc1ccnc(N)c1Cl (stereo not given)
viability, T/C (compound 0.0316 µM): 105% [middle of 4 runs] | viability, T/C (compound 3.16 µM): 64.6% [middle of 4 runs] | viability, T/C (compound 10 µM): 49% [middle of 4 runs]
